Consider 28 molecules from patent publication US20100216827A1 (Metabolex, Inc., priority 2008, published 2010).

The structures appear in SMILES notation. Like-named read-outs stand apart in the source and are kept apart here.

The target in the test is T1, human GPR120 (Homo sapiens, UniProt Q5NUL3).
T1 construct: host or cells: HEK293 cells coexpressing Gqi5
T1 sequence (Q5NUL3 1-361): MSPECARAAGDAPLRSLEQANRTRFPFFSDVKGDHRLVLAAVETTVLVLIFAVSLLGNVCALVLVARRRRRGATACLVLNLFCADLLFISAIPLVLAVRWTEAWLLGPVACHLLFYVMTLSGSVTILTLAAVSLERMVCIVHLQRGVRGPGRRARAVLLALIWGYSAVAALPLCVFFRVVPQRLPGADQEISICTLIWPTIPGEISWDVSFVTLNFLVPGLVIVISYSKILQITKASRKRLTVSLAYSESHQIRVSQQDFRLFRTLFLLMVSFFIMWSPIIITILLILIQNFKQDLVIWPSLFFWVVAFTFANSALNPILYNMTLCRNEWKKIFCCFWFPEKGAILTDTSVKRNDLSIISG
As to the kind of experiment: Intracellular Ca2+ (FLIPR Calcium 4, Flexstation) assay in human GPR120 stable HEK293 cell line coexpressing Gqi5. It is filed as cell-based. As to conditions: for % Activity at 5 μM: 5 μM compound compared to the maximal activity of GW9508 at 6.7 μM (100%); for EC50: human GPR120 stably expressing cells, 8 concentrations 0.00001 to 20 μM. In a few lines: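 Calcium 4 dye-loaded HEK293 cells expressing N-terminally Flag-tagged human GPR120 with Gqi5 (HBSS/20 mM HEPES, pH 7.4; 50 min, 37 °C). Fluorescence (485/525 nm) read for 90 s after addition of compound at 8 concentrations, 0.00001–20 μM; EC50 from Max−Min change. % activity at 5 μM versus maximal GW9508 response (6.7 μM).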

[1] abbreviates: read-out: EC50 between >1 μM and ≦10 μM.

Take `C[C@@H](Oc1cc(F)c(OCc2snnc2-c2ccc(Cl)cc2)c(F)c1)C(=O)O` [Example 66, (R)-2-(4-((4-(4-chlorophenyl)-1,2,3-thiadiazol-5-yl)methoxy)-3,5-difluorophenoxy)propanoic acid]: the “% Activity at 5 μM” value amounted to 15%. Further, the EC50 (read-out: EC50 > 10 μM) was more than 10000 nM.
With `Cc1cc(-c2onc(C)c2COc2c(F)cc(CCC(=O)O)cc2F)no1` [Example 19, 3-(4-((3′,5-dimethyl-3,5′-biisoxazol-4′-yl)methoxy)-3,5-difluorophenyl)propanoic acid], the “% Activity at 5 μM” value came to 69%. Moreover, the EC50 (read-out: EC50 ≦ 1 μM) is not above 1000 nM.
The matching figures for `CC(Cc1cc(F)c(OCc2c(C(F)(F)F)nn(C)c2Oc2ccc(Cl)cc2)c(F)c1)C(=O)O` (centres unmarked) [Example 115, 3-(4-((5-(4-Chlorophenoxy)-1-methyl-3-(trifluoromethyl)-1H-pyrazol-4-yl)methoxy)-3,5-difluorophenyl)-2-methylpropanoic Acid]: 118% and not above 1000 nM.
With `Cc1onc(-c2ccc(F)cc2)c1COc1c(F)cc(C2CC2C(=O)O)cc1F` (centres unmarked) [Example 17, 2-(3,5-difluoro-4-((3-(4-fluorophenyl)-5-methylisoxazol-4-yl)methoxy)phenyl)cyclopropanecarboxylic acid], the “% Activity at 5 μM” value worked out at 78%. Also, under setting [1], the concentration giving a half-maximal response (EC50) lay within 1000 to 10000 nM.
Take `Cc1cc(COc2c(F)cc(CC(C)C(=O)O)cc2F)n(-c2ccc(Cl)c(C)c2)n1` (centres unmarked) [Example 94, 3-(4-((1-(4-chloro-3-methylphenyl)-3-methyl-1H-pyrazol-5-yl)methoxy)-3,5-difluorophenyl)-2-methylpropanoic acid]: the “% Activity at 5 μM” value turned out to be 108%. Where the note is “read-out: EC50 ≦ 1 μM”, the EC50 was not above 1000 nM.
`CCc1ccc(-n2nc(C)cc2COc2ccc(C(C)(C)CC(=O)O)cc2)cc1` [Example 126, 3-(4-((1-(4-ethylphenyl)-3-methyl-1H-pyrazol-5-yl)methoxy)phenyl)-3-methylbutanoic acid]: the “% Activity at 5 μM” value amounted to 48%. Moreover, under setting [1], the EC50 fell in the range of 1000 to 10000 nM.
With `O=C(O)CCc1cc(F)c(OCc2cc(C(F)(F)F)nn2-c2ccccc2)c(F)c1` [Example 65, 3-(3,5-difluoro-4-((1-phenyl-3-(trifluoromethyl)-1H-pyrazol-5-yl)methoxy)phenyl)propanoic acid], the “% Activity at 5 μM” value came out at 86%. For the same molecule, the EC50 (read-out: EC50 ≦ 1 μM) was not above 1000 nM.
The matching figures for `O=C(O)C1CC1c1cc(F)c(OCc2snnc2-c2ccccc2)c(F)c1` (centres unmarked) [Example 63, 2-(3,5-difluoro-4-((4-phenyl-1,2,3-thiadiazol-5-yl)methoxy)phenyl)cyclopropane carboxylic acid]: 76% and not above 1000 nM.
Consider `Cc1cc(COc2c(F)cc(CC(C)C(=O)O)cc2F)n(-c2ccc(C(N)=O)cc2)n1` (centres unmarked) [Example 79, 3-(4-((1-(4-carbamoylphenyl)-3-methyl-1H-pyrazol-5-yl)methoxy)-3,5-difluorophenyl)-2-methylpropanoic acid], for which the “% Activity at 5 μM” value is on record as 9%. Moreover, the EC50 (read-out: EC50 > 10 μM) was more than 10000 nM.
Consider `Cc1cc(COc2ccc3c(c2)CCC3CC(=O)O)n(-c2ccc(Cl)cc2)n1` (centres unmarked) [Example 59, 2-(5-((1-(4-chlorophenyl)-3-methyl-1H-pyrazol-5-yl)methoxy)-2,3-dihydro-1H-inden-1-yl)acetic acid], for which the “% Activity at 5 μM” value came to 100%. Besides, where the note is “read-out: EC50 ≦ 1 μM”, the EC50 was not above 1000 nM.
Consider `CC(Cc1cc(F)c(OCc2ccnn2-c2ccc(Cl)cc2)c(F)c1)C(=O)O` (centres unmarked) [Example 93, 3-(4-((1-(4-chlorophenyl)-1H-pyrazol-5-yl)methoxy)-3,5-difluorophenyl)-2-methylpropanoic acid], for which the “% Activity at 5 μM” value was determined as 108%. Also, the EC50 (read-out: EC50 ≦ 1 μM) was not above 1000 nM.
Regarding `O=C(O)CSc1ccc(OCc2snnc2-c2ccccc2)cc1` [Example 29, 2-(4-((4-phenyl-1,2,3-thiadiazol-5-yl)methoxy)phenylthio)acetic acid], the “% Activity at 5 μM” value was found to be 85%. Under setting [1], the EC50 lay in the range of 1000 to 10000 nM.
Regarding `Cc1cc(COc2c(F)cc(CC(C)C(=O)O)cc2F)n(-c2ccc(C)c(Cl)c2)n1` (centres unmarked) [Example 88, 3-(4-((1-(3-chloro-4-methylphenyl)-3-methyl-1H-pyrazol-5-yl)methoxy)-3,5-difluorophenyl)-2-methylpropanoic acid], the “% Activity at 5 μM” value was 107%. For the same molecule, the EC50 (read-out: EC50 ≦ 1 μM) was not above 1000 nM.
The matching figures for `CCCc1ccc(-n2nc(C)cc2COc2c(F)cc(CC(C)C(=O)O)cc2F)cc1` (centres unmarked) [Example 105, 3-(3,5-Difluoro-4-((3-methyl-1-(4-propylphenyl)-1H-pyrazol-5-yl)methoxy)phenyl)-2-methylpropanoic acid]: 99% and not above 1000 nM.
The matching figures for `Cc1onc(-c2ccccc2)c1COc1ccc2c(c1)CCC2CC(=O)O` (centres unmarked) [Example 58, 2-(5-((5-methyl-3-phenylisoxazol-4-yl)methoxy)-2,3-dihydro-1H-inden-1-yl)acetic acid]: 66% and not above 1000 nM.
As for `CO/N=C(/CCC(=O)O)c1ccc(OCc2snnc2-c2ccc(Cl)cc2)cc1` [Example 68, (Z)-4-(4-((4-(4-chlorophenyl)-1,2,3-thiadiazol-5-yl)methoxy)phenyl)-4-(methoxyimino)butanoic acid], the “% Activity at 5 μM” value was determined as 54%. Moreover, under setting [1], the EC50 was 1000 to 10000 nM.
Turning to `CC(Cc1cc(F)c(OCc2ccnn2-c2ccccc2)c(F)c1)C(=O)O` (centres unmarked) [Example 91, 3-(3,5-difluoro-4-((1-phenyl-1H-pyrazol-5-yl)methoxy)phenyl)-2-methylpropanoic acid], the “% Activity at 5 μM” value was 64%. For the same molecule, the EC50 (read-out: EC50 ≦ 1 μM) is not above 1000 nM.
`Cc1onc(-c2ccccc2)c1COc1ccc2c(c1)CCC(CC(=O)O)C2` (centres unmarked) [Example 40, 2-(6-((5-methyl-3-phenylisoxazol-4-yl)methoxy)-1,2,3,4-tetrahydronaphthalen-2-yl)acetic acid]: the “% Activity at 5 μM” value came out at 100%. Also, the EC50 (read-out: EC50 ≦ 1 μM) was not above 1000 nM.
On to `Cc1cc(COc2c(F)cc(CCC(=O)O)cc2F)c(-c2ccccc2)o1` [Example 12, 3-(3,5-difluoro-4-((5-methyl-2-phenylfuran-3-yl)methoxy)phenyl)propanoic acid], for which the “% Activity at 5 μM” value is reported as 70%. Besides, under setting [1], the EC50 was in the range of 1000 to 10000 nM.
For the molecule `Cc1cc(COc2c(F)cc(CC3CC3C(=O)O)cc2F)n(-c2ccc(Cl)cc2)n1` (centres unmarked) [Example 55, 2-(4-((1-(4-chlorophenyl)-3-methyl-1H-pyrazol-5-yl)methoxy)-3,5-difluorobenzyl)cyclopropanecarboxylic acid], the “% Activity at 5 μM” value turned out to be 66%. For the same molecule, for the setting “read-out: EC50 ≦ 1 μM”, the EC50 is not above 1000 nM.
With `Cc1cc(COc2c(F)cc(CCC(=O)O)cc2F)n(C(C)C)n1` [Example 25, 3-(3,5-difluoro-4-((1-isopropyl-3-methyl-1H-pyrazol-5-yl)methoxy)phenyl)propanoic acid], the “% Activity at 5 μM” value turned out to be 92%. Also, under setting [1], the EC50 is 1000 to 10000 nM.
With `Cc1onc(-c2ccccc2)c1COc1c(F)cc(CCC(=O)O)cc1F` [Example 14, 3-(3,5-difluoro-4-((5-methyl-3-phenylisoxazol-4-yl)methoxy)phenyl)propanoic acid], the “% Activity at 5 μM” value turned out to be 66%. In addition, under “read-out: EC50 ≦ 1 μM”, the EC50 is not above 1000 nM.
The matching figures for `Cc1cc(COc2ccc(CC(C)C(=O)O)cc2)n(-c2ccc(Cl)cc2)n1` (centres unmarked) [Example 86, 3-(4-((1-(4-chlorophenyl)-3-methyl-1H-pyrazol-5-yl)methoxy)phenyl)-2-methylpropanoic acid]: 98% and not above 1000 nM.
The matching figures for `CCc1ccc(-n2nc(C)cc2COc2ccc(CC(C)C(=O)O)cc2C)cc1` (centres unmarked) [Example 95, 3-(4-((1-(4-ethylphenyl)-3-methyl-1H-pyrazol-5-yl)methoxy)-3-methylphenyl)-2-methylpropanoic acid]: 100% and not above 1000 nM.
Take `Cc1cc(COc2c(F)cc(C3CC3C(=O)O)cc2F)n(-c2ccccc2)n1` (centres unmarked) [Example 64, 2-(3,5-difluoro-4-((3-methyl-1-phenyl-1H-pyrazol-5-yl)methoxy)phenyl)cyclopropane carboxylic acid]: the “% Activity at 5 μM” value was found to be 71%. Also, the EC50 (read-out: EC50 ≦ 1 μM) was not above 1000 nM.
Turning to `Cc1onc(-c2ccccc2)c1COc1c(F)cc(C2CC2C(=O)O)cc1F` (centres unmarked) [Example 16, 2-(3,5-difluoro-4-((5-methyl-3-phenylisoxazol-4-yl)methoxy)phenyl)cyclopropanecarboxylic acid], the “% Activity at 5 μM” value was 60%. Moreover, the EC50 (read-out: EC50 ≦ 1 μM) was not above 1000 nM.
The matching figures for `CC(C)c1cc(COc2c(F)cc(CCC(=O)O)cc2F)n(-c2ccccc2)n1` [Example 1, 3-(3,5-difluoro-4-((3-isopropyl-1-phenyl-1H-pyrazol-5-yl)methoxy)phenyl)propanoic acid]: 79% and not above 1000 nM.
Turning to `Cc1cc(COc2c(F)cc(CC(C)C(=O)O)cc2F)n(-c2cccc(C(C)C)c2)n1` (centres unmarked) [Example 85, 3-(3,5-difluoro-4-((1-(3-isopropylphenyl)-3-methyl-1H-pyrazol-5-yl)methoxy)phenyl)-2-methylpropanoic acid], the “% Activity at 5 μM” value was determined as 95%. The EC50 (read-out: EC50 ≦ 1 μM) is not above 1000 nM.

One may read the EC50 as the concentration needed to bring the measured effect to its halfway point.
